# Laboratory results published in US10722501B2 (BAYER AKTIENGESELLSCHAFT, priority 2016, dated 2020).
# Target: T1, recombinant full-length human prolyl endopeptidase (PREP) (Homo sapiens, UniProt P48147)
# T1 construct: To recombinant full-length human prolyl endopeptidase (PREP, R&D-Systems, 4308-SE); purchased R&D-Systems 4308-SE
# T1 sequence (P48147 1-710): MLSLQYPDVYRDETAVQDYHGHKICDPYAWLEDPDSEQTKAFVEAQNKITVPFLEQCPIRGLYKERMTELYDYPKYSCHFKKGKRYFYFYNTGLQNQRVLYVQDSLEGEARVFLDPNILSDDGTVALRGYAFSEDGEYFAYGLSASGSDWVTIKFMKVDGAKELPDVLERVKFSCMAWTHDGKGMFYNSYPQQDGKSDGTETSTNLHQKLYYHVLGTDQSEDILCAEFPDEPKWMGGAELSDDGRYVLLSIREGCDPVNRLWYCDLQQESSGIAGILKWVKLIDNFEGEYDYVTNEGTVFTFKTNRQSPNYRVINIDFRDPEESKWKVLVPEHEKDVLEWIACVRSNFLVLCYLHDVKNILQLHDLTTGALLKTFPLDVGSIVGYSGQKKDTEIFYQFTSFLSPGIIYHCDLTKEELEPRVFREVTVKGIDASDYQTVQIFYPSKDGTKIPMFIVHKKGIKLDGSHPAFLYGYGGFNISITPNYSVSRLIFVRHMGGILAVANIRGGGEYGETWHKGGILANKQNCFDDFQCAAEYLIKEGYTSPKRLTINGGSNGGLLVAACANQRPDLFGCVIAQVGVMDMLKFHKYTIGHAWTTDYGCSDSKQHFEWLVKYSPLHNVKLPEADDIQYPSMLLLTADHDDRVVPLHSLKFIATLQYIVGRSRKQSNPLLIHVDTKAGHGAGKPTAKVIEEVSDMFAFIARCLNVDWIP
# Test: Biochemical human prolyl endopeptidase (PREP) assay with fluorescently labelled substrate
# Conditions: substrate Z-Gly-Pro-AMC 50 μM, 32° C., 60 min; some as mean values from multiple independent determinations
# Outline: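 Initial rates of fluorescence increase from 50 μM Z-Gly-Pro-AMC cleavage (ex 360/em 465 nm, 60 min, 32° C) give percent PREP activity versus no-compound control, and IC50 is interpolated. Enzyme used at 0.4 nM (final, example) in Tris pH 7.5 with EDTA, GSH, BSA and Brij-35; compounds span 1 nM to 30 μM.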
row,SMILES,IC50 [nM]
1,"O=C([C@@H]1CCCc2nn(Cc3cncc(C(F)(F)F)c3)c(=O)n21)N1CCC(F)(F)C1 [Example 579, (5S)-5-[(3,3-Difluoropyrrolidin-1-yl)carbonyl]-2-{[5-(trifluoromethyl)pyridin-3-yl]methyl}-5,6,7,8-tetrahydro[1,2,4]triazolo[4,3-a]pyridin-3(2H)-one]",1.1
2,"Cc1ccc(Cn2nc3n(c2=O)C(C(=O)N2CC(O)C2)CCC3)cc1 (racemic) [Example 120, (5RS)-5-[(3-Hydroxyazetidin-1-yl)carbonyl]-2-(4-methylbenzyl)-5,6,7,8-tetrahydro[1,2,4]triazolo[4,3-a]pyridin-3(2H)-one]",9.6
3,"CC(c1ccc(C(F)(F)F)nc1)n1nc2n(c1=O)[C@H](C(=O)N1CC[C@H](F)C1)CCC2 (single isomer, unassigned) [Example 216]",0.56
4,"O=C([C@@H]1CCCc2nn(CCc3ncc(C(F)(F)F)cc3Cl)c(=O)n21)N1CC(F)C1 [Example 518, (5S)-2-{[3-Chloro-5-(trifluoromethyl)pyridin-2-yl]ethyl}-5-[(3-fluoroazetidin-1-yl)carbonyl]-5,6,7,8-tetrahydro[1,2,4]triazolo[4,3-a]pyridin-3(2H)-one]",15
5,"Cc1ccc(Cn2nc3n(c2=O)[C@H](C(=O)N2CC(C(F)F)C2)CCC3)cc1 [Example 149, (5S)-5-{[3-(Difluoromethyl)azetidin-1-yl]carbonyl}-2-(4-methylbenzyl)-5,6,7,8-tetrahydro[1,2,4]triazolo[4,3-a]pyridin-3(2H)-one]",2.5
6,"O=C(C1CCCc2nn(Cc3ccc(C(F)(F)F)cc3)c(=O)n21)N1CCCC1 (racemic) [Example 1, (5RS)-5-(Pyrrolidin-1-ylcarbonyl)-2-[4-(trifluoromethyl)benzyl]-5,6,7,8-tetrahydro[1,2,4]triazolo[4,3-a]pyridin-3(2H)-one]",1.75
7,O=C(C1CCCc2nn(Cc3ccc(C(F)(F)F)c(F)c3)c(=O)n21)N1CCCC1 (racemic) [Example 14],0.3
8,"O=C(C1CC(C(F)(F)F)Cc2nn(Cc3ccc(Cl)nc3)c(=O)n21)N1CC[C@H](F)C1 (single isomer, unassigned) [Example 243]",0.623
9,"Cc1ccc(Cn2nc3n(c2=O)C(C(=O)N2CC(F)C2)CCC3)cc1 (racemic) [Example 112, (5RS)-5-[(3-Fluoroazetidin-1-yl)carbonyl]-2-(4-methylbenzyl)-5,6,7,8-tetrahydro[1,2,4]triazolo[4,3-a]pyridin-3(2H)-one]",1.59
10,"O=C([C@@H]1CCCc2nn(Cc3ncc(C(F)(F)F)cc3Cl)c(=O)n21)N1CCC(F)(F)C1 [Example 404, (5S)-2-{[3-Chloro-5-(trifluoromethyl)pyridin-2-yl]methyl}-5-[(3,3-difluoropyrrolidin-1-yl)carbonyl]-5,6,7,8-tetrahydro[1,2,4]triazolo[4,3-a]pyridin-3(2H)-one]",2.33
11,"O=C(C1CCCc2nn(Cc3ccc(F)c(F)c3)c(=O)n21)N1CCCC1 (racemic) [Example 17, (5RS)-2-(3,4-Difluorobenzyl)-5-(pyrrolidin-1-ylcarbonyl)-5,6,7,8-tetrahydro[1,2,4]triazolo[4,3-a]pyridin-3(2H)-one]",1.2
12,"O=C(C1CCc2nn(Cc3ccc(Cl)nc3)c(=O)n21)N1CC[C@H](F)C1 (mixture of isomers) [Example 163, (5RS)-2-[(6-Chloropyridin-3-yl)methyl]-5-{[(3S)-3-fluoropyrrolidin-1-yl]carbonyl}-2,5,6,7-tetrahydro-3H-pyrrolo[2,1-c][1,2,4]triazol-3-one]",2.8
13,"CC1CCC(C(=O)N2CC[C@H](F)C2)n2c1nn(Cc1ccc(C(F)(F)F)nc1)c2=O (single isomer, unassigned) [Example 222]",1.1
14,"Cn1nc(Cn2nc3n(c2=O)[C@H](C(=O)N2C[C@@H](F)[C@@H](F)C2)CCC3)c2cccnc21 [Example 414, (5S)-5-{[(3R,4S)-3,4-Difluoropyrrolidin-1-yl]carbonyl}-2-[(1-methyl-1H-pyrazolo[3,4-b]pyridin-3-yl)methyl]-5,6,7,8-tetrahydro[1,2,4]triazolo[4,3-a]pyridin-3(2H)-one]",0.79
15,"O=C(C1CC(C(F)(F)F)Cc2nn(Cc3ccnc(C(F)(F)F)c3F)c(=O)n21)N1CCC(F)(F)C1 (racemic) [Example 251, (5RS,7RS)-5-[(3,3-Difluoropyrrolidin-1-yl)carbonyl]-2-{[3-fluoro-2-(trifluoromethyl)pyridin-4-yl]methyl}-7-(trifluoromethyl)-5,6,7,8-tetrahydro[1,2,4]triazolo[4,3-a]pyridin-3(2H)-one]",3.4
16,"O=C([C@@H]1CCCc2nn(Cc3cc(F)c(F)cc3F)c(=O)n21)N1CC[C@H](F)C1 [Example 493, (5S)-5-{[(3S)-3-Fluoropyrrolidin-1-yl]carbonyl}-2-(2,4,5-trifluorobenzyl)-5,6,7,8-tetrahydro[1,2,4]triazolo[4,3-a]pyridin-3(2H)-one]",0.32
17,"O=C([C@@H]1CCCc2nn(Cc3ncccc3Cl)c(=O)n21)N1CC[C@H](F)C1 [Example 393, (5S)-2-[(3-Chloropyridin-2-yl)methyl]-5-{[(3S)-3-fluoropyrrolidin-1-yl]carbonyl}-5,6,7,8-tetrahydro[1,2,4]triazolo[4,3-a]pyridin-3(2H)-one]",1.4
18,"O=C(C1CC(C(F)(F)F)Cc2nn(Cc3ccnc(C(F)(F)F)c3F)c(=O)n21)N1CC[C@H](F)C1 (single isomer, unassigned) [Example 257]",0.595
19,"Cc1ccc(C(C)n2nc3n(c2=O)[C@H](C(=O)N2CCCC2)CCC3)cc1 (mixture of isomers) [Example 502, (5S)-2-[(1 RS)-1-(4-Methylphenyl)ethyl]-5-(pyrrolidin-1-ylcarbonyl)-5,6,7,8-tetrahydro[1,2,4]triazolo[4,3-a]pyridin-3(2H)-one]",4.1
20,"O=C(C1CC(C(F)(F)F)Cc2nn(Cc3ccnc(C(F)(F)F)c3F)c(=O)n21)N1C[C@@H](F)[C@@H](F)C1 (single isomer, unassigned) [Example 259]",17
21,"O=C(C1CCc2nn(Cc3ccnc(C(F)(F)F)c3F)c(=O)n21)N1C[C@@H](F)[C@@H](F)C1 (mixture of isomers) [Example 175, (5RS)-5-{[(3R,4S)-3,4-Difluoropyrrolidin-1-yl]carbonyl}-2-{[3-fluoro-2-(trifluoromethyl)pyridin-4-yl]methyl}-2,5,6,7-tetrahydro-3H-pyrrolo[2,1-c][1,2,4]triazol-3-one]",7
22,"O=C(C1CCCc2nn(Cc3ncc(C(F)(F)F)cc3Cl)c(=O)n21)N1CC(O)C1 (racemic) [Example 403, (5RS)-2-{[3-Chloro-5-(trifluoromethyl)pyridin-2-yl]methyl}-5-[(3-hydroxyazetidin-1-yl)carbonyl]-5,6,7,8-tetrahydro[1,2,4]triazolo[4,3-a]pyridin-3(2H)-one]",189
23,"O=C(C1CC(C(F)(F)F)Cc2nn(Cc3cncc(Cl)c3)c(=O)n21)N1CC[C@H](F)C1 (single isomer, unassigned) [Example 317]",0.41
24,"O=C(C1CCCc2nn(Cc3cccc(F)c3)c(=O)n21)N1CCCC1 (racemic) [Example 16, (5RS)-2-(3-Fluorobenzyl)-5-(pyrrolidin-1-ylcarbonyl)-5,6,7,8-tetrahydro[1,2,4]triazolo[4,3-a]pyridin-3(2H)-one]",2.2
25,"O=C([C@@H]1CCCc2nn(Cc3ccc(Cl)cn3)c(=O)n21)N1CC(F)C1 [Example 379, (5S)-2-[(5-Chloropyridin-2-yl)methyl]-5-[(3-fluoroazetidin-1-yl)carbonyl]-5,6,7,8-tetrahydro[1,2,4]triazolo[4,3-a]pyridin-3(2H)-one]",2.5
26,"O=C(C1CCCc2nn(Cc3ccc(OC(F)(F)F)c(F)c3)c(=O)n21)N1CCCC1 (racemic) [Example 67, (5RS)-2-[3-Fluoro-4-(trifluoromethoxy)benzyl]-5-(pyrrolidin-1-ylcarbonyl)-5,6,7,8-tetrahydro[1,2,4]triazolo[4,3-a]pyridin-3(2H)-one]",8.7
27,"O=C([C@@H]1CCCc2nn(Cc3ncc(Cl)cc3F)c(=O)n21)N1CCSC1 [Example 507, (5S)-2-[(5-Chloro-3-fluoropyridin-2-yl)methyl]-5-(1,3-thiazolidin-3-ylcarbonyl)-5,6,7,8-tetrahydro[1,2,4]triazolo[4,3-a]pyridin-3(2H)-one]",0.94
28,"O=C([C@@H]1CCCc2nn(Cc3ccc(C(F)(F)F)nc3)c(=O)n21)N1CCC(F)(F)C1 [Example 426, (5S)-5-[(3,3-Difluoropyrrolidin-1-yl)carbonyl]-2-{[6-(trifluoromethyl)pyridin-3-yl]methyl}-5,6,7,8-tetrahydro[1,2,4]triazolo[4,3-a]pyridin-3(2H)-one]",6.93
